Source: the NIST ThermoML archive (doi:10.1021/acs.jced.8b00547)
Numbers after ± are expanded uncertainties.

Key:
[1] = 101 kPa, Liquid; for speed of sound: Single path-length method; for mass density: Vibrating tube method
[2] = refractive index (Na D-line) (dimensionless); details: 101 kPa, Liquid, Standard Abbe refractometry
[3] = xn = mol fraction of the nth substance listed; details: 101 kPa, Liquid, x2 = 0; for speed of sound: Single path-length method; for mass density: Vibrating tube method
[4] = refractive index (Na D-line) (dimensionless); xn = mol fraction of the nth substance listed; details: 101 kPa, Liquid, Standard Abbe refractometry, x2 = 0

CCC(C)O (stereo not given) [butan-2-ol]
Details	mass density, [1] [kg/m3]	refractive index, [2]	speed of sound, [1] [m/s]
298.15 K	802.4 ± 0.41	1.39474 ± 0.00049	1212 ± 1.4
308.15 K	793.86 ± 0.41	1.39011 ± 0.00049	1175.8 ± 1.4
318.15 K	785.26 ± 0.41	1.38547 ± 0.00049	1139.5 ± 1.4
328.15 K	775.73 ± 0.42	1.38022 ± 0.00049	1102.3 ± 1.4
338.15 K	765.75 ± 0.42	1.37621 ± 0.00049	1064.5 ± 1.4

CCC(C)O (stereo not given) [butan-2-ol] + CCCC(C)=O
Details	mass density, [3] [kg/m3]	refractive index, [4]	speed of sound, [3] [m/s]
298.15 K	802.4 ± 0.41	1.39474 ± 0.00049	1212 ± 1.4
308.15 K	793.86 ± 0.41	1.39011 ± 0.00049	1175.8 ± 1.4
318.15 K	785.26 ± 0.41	1.38547 ± 0.00049	1139.5 ± 1.4
328.15 K	775.73 ± 0.42	1.38022 ± 0.00049	1102.3 ± 1.4
338.15 K	765.75 ± 0.42	1.37621 ± 0.00049	1064.5 ± 1.4

CCCC(C)=O [pentan-2-one]
Details	mass density, [1] [kg/m3]	refractive index, [2]	speed of sound, [1] [m/s]
298.15 K	802.09 ± 0.41	1.38782 ± 0.00049	1216 ± 1.4
308.15 K	792.32 ± 0.41	1.38284 ± 0.00049	1174.4 ± 1.4
318.15 K	782.44 ± 0.41	1.37782 ± 0.00049	1133.3 ± 1.4
328.15 K	772.43 ± 0.42	1.3728 ± 0.00049	1093.6 ± 1.4
338.15 K	762.27 ± 0.42	1.36764 ± 0.00049	1053.8 ± 1.4

CC(C)O [propan-2-ol]
Details	mass density, [1] [kg/m3]	refractive index, [2]	speed of sound, [1] [m/s]
298.15 K	781.1 ± 0.41	1.37522 ± 0.00049	1138.5 ± 1.4
308.15 K	772.51 ± 0.42	1.37083 ± 0.00049	1103.2 ± 1.4
318.15 K	763.51 ± 0.42	1.36622 ± 0.00049	1068.1 ± 1.4
328.15 K	754.19 ± 0.42	1.36146 ± 0.00049	1032.6 ± 1.4
338.15 K	743.66 ± 0.42	1.35637 ± 0.00049	997.33 ± 1.4

CC(C)O [propan-2-ol] + CCCC(C)=O
Details	mass density, [3] [kg/m3]	refractive index, [4]	speed of sound, [3] [m/s]
298.15 K	781.1 ± 0.41	1.37522 ± 0.00049	1138.5 ± 1.4
308.15 K	772.51 ± 0.42	1.37083 ± 0.00049	1103.2 ± 1.4
318.15 K	763.51 ± 0.42	1.36622 ± 0.00049	1068.1 ± 1.4
328.15 K	754.19 ± 0.42	1.36146 ± 0.00049	1032.6 ± 1.4
338.15 K	743.66 ± 0.42	1.35637 ± 0.00049	997.33 ± 1.4
